Data as given in ChEMBL document CHEMBL1201862, “PubChem BioAssay data set” (2004).
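Protocol summary: plate cells (96-well), add compound at 5 concentrations, incubate 48 h, interpolate endpoints linearly. Abbreviation: GI50, concentration required for 50% inhibition of growth.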 Activity calls are given as the source filed them. No stated cut-off is given here; in the data, active = GI50 up to about 1.1 µM and inactive = higher.

How the values were obtained:
Test in all cases: NCI-60 cell line screen, 48 h
[1] = system: OVCAR-3
[2] = system: SK-MEL-28
[3] = system: T47D
[4] = system: U-251
[5] = system: HOP-92
[6] = system: M14
[7] = system: SK-OV-3
[8] = system: SW-620
[9] = system: TK-10
[10] = system: UO-31
[11] = system: Hs-578T
[12] = system: CAKI-1
[13] = system: NCI-H460
[14] = system: SNB-75
[15] = system: SK-MEL-5
[16] = system: MOLT-4
[17] = system: NCI-H522
[18] = system: OVCAR-8
[19] = system: SK-MEL-2

| SMILES | GI50 [1] | GI50 [2] | GI50 [3] | GI50 [4] | GI50 [5] | GI50 [6] | GI50 [7] | GI50 [8] | GI50 [9] | GI50 [10] | GI50 [11] | GI50 [12] | GI50 [13] | GI50 [14] | GI50 [15] | GI50 [16] | GI50 [17] | GI50 [18] | GI50 [19] |
| --- | --- | --- | --- | --- | --- | --- | --- | --- | --- | --- | --- | --- | --- | --- | --- | --- | --- | --- | --- |
| N#C/C(=C\c1ccc([N+](=O)[O-])o1)c1n[nH]c(Cc2ccccc2)n1 | 1.64 µM (inactive) | 2.03 µM (inactive) | 2 µM (inactive) | 2.81 µM (inactive) | 2.77 µM (inactive) | 1.63 µM (inactive) | 4.52 µM (inactive) | 0.277 µM (active) | 2 µM (inactive) | 2.66 µM (inactive) | 3.98 µM (inactive) | 1.95 µM (inactive) | 3.3 µM (inactive) | 2.52 µM (inactive) | 1.05 µM (active) | 0.406 µM (active) | 0.368 µM (active) | 2.84 µM (inactive) | 1.99 µM (inactive) |
| Cn1c(=O)c2c(ncn2CN2CCN(Cn3cnc4c3c(=O)n(C)c(=O)n4C)CC2)n(C)c1=O | > 100 µM (inactive) | 48.1 µM (inactive) | 30.5 µM (inactive) | > 100 µM (inactive) | 52 µM (inactive) | 38.5 µM (inactive) | > 100 µM (inactive) | 23.2 µM (inactive) | 21.5 µM (inactive) | 46.1 µM (inactive) | > 100 µM (inactive) | 77.3 µM (inactive) | 19.2 µM (inactive) | 74.8 µM (inactive) | > 100 µM (inactive) | 17 µM (inactive) | 44.7 µM (inactive) | 44.6 µM (inactive) | > 100 µM (inactive) |
| O=[N+]([O-])c1cc2[nH]nnc2c2nonc12 | 33.5 µM (inactive) | 38.5 µM (inactive) | > 100 µM (inactive) | 28.4 µM (inactive) | 36.5 µM (inactive) | 22.4 µM (inactive) | 46.8 µM (inactive) | 30.7 µM (inactive) | 40.4 µM (inactive) | 17.9 µM (inactive) | 17.4 µM (inactive) | 29.7 µM (inactive) | 35.1 µM (inactive) | 38.5 µM (inactive) | 11.9 µM (inactive) | 6.18 µM (inactive) | 14.3 µM (inactive) | 21.1 µM (inactive) | 40.7 µM (inactive) |
| O=C(Nc1ccc(Cl)cc1)c1cc(S(=O)(=O)Nc2nc3cccnc3[nH]2)c(SSc2cc(Cl)c(C(=O)Nc3ccc(Cl)cc3)cc2S(=O)(=O)Nc2nc3cccnc3[nH]2)cc1Cl | > 100 µM (inactive) | > 100 µM (inactive) | > 100 µM (inactive) | > 100 µM (inactive) | > 100 µM (inactive) | > 100 µM (inactive) | > 100 µM (inactive) | > 100 µM (inactive) | > 100 µM (inactive) | > 100 µM (inactive) | > 100 µM (inactive) | > 100 µM (inactive) | > 100 µM (inactive) | > 100 µM (inactive) | > 100 µM (inactive) | > 100 µM (inactive) | > 100 µM (inactive) | > 100 µM (inactive) | > 100 µM (inactive) |
| CS(=O)(=O)N1CC(CCl)c2ccc(NCCN)cc21 (stereo unspecified) | > 100 µM (inactive) | > 100 µM (inactive) | > 100 µM (inactive) | 27.7 µM (inactive) | 26.3 µM (inactive) | > 100 µM (inactive) | 22.1 µM (inactive) | > 100 µM (inactive) | > 100 µM (inactive) | > 100 µM (inactive) | 27.2 µM (inactive) | 96.2 µM (inactive) | > 100 µM (inactive) | 17.1 µM (inactive) | > 100 µM (inactive) | > 100 µM (inactive) | 23.7 µM (inactive) | 57.5 µM (inactive) | > 100 µM (inactive) |
| CC(=O)O[C@H]1CC[C@@]2(C)C(=CC[C@H]3[C@@H]4C/C(=C\c5ccncc5)[C@H](OC(C)=O)[C@@]4(C)CC[C@@H]32)C1 | 11.3 µM (inactive) | 5.74 µM (inactive) | 14.2 µM (inactive) | 10 µM (inactive) | 3.48 µM (inactive) | 10.9 µM (inactive) | 21.6 µM (inactive) | 4.14 µM (inactive) | 22.5 µM (inactive) | 8.04 µM (inactive) | 6.97 µM (inactive) | 11.2 µM (inactive) | 10.1 µM (inactive) | 7.62 µM (inactive) | 5.47 µM (inactive) | 3.04 µM (inactive) | 3.65 µM (inactive) | 11.8 µM (inactive) | 16.7 µM (inactive) |
| O=[N+]([O-])c1cccc2nc3ccccc3c(NCCCNc3c4ccccc4nc4cccc([N+](=O)[O-])c34)c12 | < 0.0258 µM (active) | 0.0505 µM (active) | 0.0537 µM (active) | 0.0171 µM (active) | < 0.01 µM (active) | < 0.0177 µM (active) | 0.0982 µM (active) | < 0.01 µM (active) | 0.02 µM (active) | 0.0472 µM (active) | 0.0162 µM (active) | < 0.0215 µM (active) | < 0.01 µM (active) | 0.0328 µM (active) | 0.0163 µM (active) | 0.017 µM (active) | 0.0146 µM (active) | < 0.0139 µM (active) | 0.035 µM (active) |
| COC(=O)C1=C(C)NC(C)=C(C(=O)OC)C1c1cccc(/[N+]([O-])=C/c2ccccc2)c1 | 17.4 µM (inactive) | 17.5 µM (inactive) | 17.3 µM (inactive) | > 100 µM (inactive) | 23.4 µM (inactive) | 18.6 µM (inactive) | > 100 µM (inactive) | 21.3 µM (inactive) | 38.9 µM (inactive) | 34.2 µM (inactive) | 42.1 µM (inactive) | 18.1 µM (inactive) | 97.9 µM (inactive) | 41.7 µM (inactive) | > 100 µM (inactive) | 23.2 µM (inactive) | 16.4 µM (inactive) | 17.5 µM (inactive) | 75 µM (inactive) |
| CC1(C)N=C(N)N=C(N)N1c1cccc(CSc2ccccc2)c1 | 0.991 µM (active) | 0.805 µM (active) | 12.9 µM (inactive) | 0.045 µM (active) | 32 µM (inactive) | 0.346 µM (active) | 95.3 µM (inactive) | 7.59 µM (inactive) | 78.7 µM (inactive) | > 100 µM (inactive) | 2.83 µM (inactive) | 23.6 µM (inactive) | 0.0404 µM (active) | 4.42 µM (inactive) | 0.212 µM (active) | 0.141 µM (active) | 0.318 µM (active) | 3.16 µM (inactive) | 18.4 µM (inactive) |
| OC1(c2ccccc2)CSC2=Nc3ccccc3C3CCN1N23 (stereo unspecified) | 26.7 µM (inactive) | 4.16 µM (inactive) | 16.6 µM (inactive) | 14.9 µM (inactive) | 18.9 µM (inactive) | 21.9 µM (inactive) | 32.7 µM (inactive) | 21.4 µM (inactive) | 22.3 µM (inactive) | 15.4 µM (inactive) | 24.2 µM (inactive) | 21.1 µM (inactive) | 13.4 µM (inactive) | 3.75 µM (inactive) | 17.7 µM (inactive) | 30.5 µM (inactive) | 20 µM (inactive) | 19.5 µM (inactive) | 15.8 µM (inactive) |
| C[C@H]1[C@H](C)CC[C@]2(C(=O)OC3OC(CO)C(O)C(O)C3O)CC[C@]3(C)C(=CC[C@@H]4[C@@]5(C)C[C@@H](O)[C@@H]6OC(=O)c7cc(O)c(O)c(O)c7-c7c(cc(O)c(O)c7O)C(=O)OC[C@]6(CO)[C@@H]5CC[C@]43C)[C@H]12 (stereo partly specified) | 35.2 µM (inactive) | > 100 µM (inactive) | 42.7 µM (inactive) | 16.4 µM (inactive) | 63.1 µM (inactive) | 97.9 µM (inactive) | 31.7 µM (inactive) | 27.4 µM (inactive) | > 100 µM (inactive) | 56.9 µM (inactive) | > 100 µM (inactive) | 17 µM (inactive) | 23.7 µM (inactive) | > 88.5 µM (inactive) | 39.8 µM (inactive) | 17.7 µM (inactive) | 13.6 µM (inactive) | 29.6 µM (inactive) | > 65 µM (inactive) |
| CN(C)CC1CCCCCC(Br)C1=O (stereo unspecified) | 7.38 µM (inactive) | 15.9 µM (inactive) | 9.23 µM (inactive) | 19.6 µM (inactive) | 5.66 µM (inactive) | 15.6 µM (inactive) | > 100 µM (inactive) | 3.71 µM (inactive) | 4.06 µM (inactive) | 13.6 µM (inactive) | 17.1 µM (inactive) | 6.59 µM (inactive) | 17.7 µM (inactive) | 37.2 µM (inactive) | 15.5 µM (inactive) | 0.946 µM (active) | 3.66 µM (inactive) | 13 µM (inactive) | 20.7 µM (inactive) |
| CCn1cc(C(=O)O)c(=O)c2cc(F)c(N3CCN(CN4C(=O)/C(=N\NC(=O)c5ccncc5)c5cc(Cl)ccc54)CC3)cc21 | 39.1 µM (inactive) | 59.2 µM (inactive) | 29.4 µM (inactive) | 33 µM (inactive) | 45.5 µM (inactive) | 54 µM (inactive) | 24.9 µM (inactive) | 23.4 µM (inactive) | 24.7 µM (inactive) | 4.83 µM (inactive) | 45.2 µM (inactive) | 23.7 µM (inactive) | 52.4 µM (inactive) | 25.5 µM (inactive) | 42.2 µM (inactive) | 0.048 µM (active) | 21.8 µM (inactive) | 28.5 µM (inactive) | 23 µM (inactive) |
| CCOC(=O)C1=CN(C(=O)c2ccccc2)CCC1Cc1ccccc1 (stereo unspecified) | 25.9 µM (inactive) | 22.9 µM (inactive) | 12.5 µM (inactive) | 21.1 µM (inactive) | 14.7 µM (inactive) | 18.6 µM (inactive) | 31 µM (inactive) | 26 µM (inactive) | 22.9 µM (inactive) | 33 µM (inactive) | 20.5 µM (inactive) | 24.4 µM (inactive) | 17.5 µM (inactive) | 18.2 µM (inactive) | 15 µM (inactive) | 13.5 µM (inactive) | 16.2 µM (inactive) | 24.4 µM (inactive) | 16.8 µM (inactive) |
